Results on 3 molecules are retold here after ChEMBL document CHEMBL1157898 (Bioorg Med Chem Lett, 2010).

The structures appear in SMILES notation. Activity calls are given as the source filed them. No cut-off for these calls is given here.

Ribosomal protein S6 kinase alpha-5 (Homo sapiens), sequence (O75582 whole entry, looked up): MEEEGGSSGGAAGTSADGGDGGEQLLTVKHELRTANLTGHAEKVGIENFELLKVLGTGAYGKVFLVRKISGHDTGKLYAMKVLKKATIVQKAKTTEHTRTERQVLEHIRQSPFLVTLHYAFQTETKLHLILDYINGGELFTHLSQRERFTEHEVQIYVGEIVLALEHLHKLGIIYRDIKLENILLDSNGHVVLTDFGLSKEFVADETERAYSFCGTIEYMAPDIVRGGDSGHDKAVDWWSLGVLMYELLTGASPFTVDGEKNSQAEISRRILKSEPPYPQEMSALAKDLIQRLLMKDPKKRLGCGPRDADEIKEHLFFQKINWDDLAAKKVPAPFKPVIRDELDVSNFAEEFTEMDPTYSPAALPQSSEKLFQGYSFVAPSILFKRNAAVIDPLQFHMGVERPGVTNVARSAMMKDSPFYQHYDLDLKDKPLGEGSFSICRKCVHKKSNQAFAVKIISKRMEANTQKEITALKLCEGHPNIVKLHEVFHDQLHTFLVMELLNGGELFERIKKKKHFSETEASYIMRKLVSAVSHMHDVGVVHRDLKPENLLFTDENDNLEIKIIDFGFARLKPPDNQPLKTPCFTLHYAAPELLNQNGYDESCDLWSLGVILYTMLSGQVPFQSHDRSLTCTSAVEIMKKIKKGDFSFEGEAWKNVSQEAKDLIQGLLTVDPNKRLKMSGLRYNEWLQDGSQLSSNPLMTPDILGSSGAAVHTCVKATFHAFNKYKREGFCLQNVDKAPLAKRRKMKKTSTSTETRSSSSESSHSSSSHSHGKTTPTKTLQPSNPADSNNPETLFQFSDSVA

One assay deals with Mitogen-activated protein kinase 14 (Homo sapiens) (UniProt Q16539). As to the kind of experiment: Inhibition of P38alpha.
Mitogen-activated protein kinase 14 (Homo sapiens), sequence (Q16539 whole entry): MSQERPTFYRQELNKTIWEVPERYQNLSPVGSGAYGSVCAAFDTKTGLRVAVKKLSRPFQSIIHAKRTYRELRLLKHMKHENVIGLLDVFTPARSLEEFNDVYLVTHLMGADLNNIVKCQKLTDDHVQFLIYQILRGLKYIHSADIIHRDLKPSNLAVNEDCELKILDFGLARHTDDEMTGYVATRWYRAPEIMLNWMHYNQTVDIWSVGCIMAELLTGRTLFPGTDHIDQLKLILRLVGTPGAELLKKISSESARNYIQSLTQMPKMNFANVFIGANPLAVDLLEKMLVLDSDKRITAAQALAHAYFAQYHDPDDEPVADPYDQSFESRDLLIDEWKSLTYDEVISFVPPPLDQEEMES
With `COc1cc(/C=C2/C(=O)Nc3ccc(Cl)cc32)cc(OC)c1OC`, the inhibition entry was “inactive”.

As for `O=C1Nc2ccc(Cl)cc2/C1=C\c1ccc2c(c1)OCO2`, the inhibition result was “inactive”.

`O=C1Nc2ccc(Cl)cc2/C1=C\c1ccccc1F`: the inhibition result is “inactive”.

The target of another assay is Mitogen-activated protein kinase kinase kinase kinase 4 (Homo sapiens) (UniProt O95819). Briefly: Inhibition of HGK.
Mitogen-activated protein kinase kinase kinase kinase 4 (Homo sapiens), sequence (O95819 2-1239 limits assumed): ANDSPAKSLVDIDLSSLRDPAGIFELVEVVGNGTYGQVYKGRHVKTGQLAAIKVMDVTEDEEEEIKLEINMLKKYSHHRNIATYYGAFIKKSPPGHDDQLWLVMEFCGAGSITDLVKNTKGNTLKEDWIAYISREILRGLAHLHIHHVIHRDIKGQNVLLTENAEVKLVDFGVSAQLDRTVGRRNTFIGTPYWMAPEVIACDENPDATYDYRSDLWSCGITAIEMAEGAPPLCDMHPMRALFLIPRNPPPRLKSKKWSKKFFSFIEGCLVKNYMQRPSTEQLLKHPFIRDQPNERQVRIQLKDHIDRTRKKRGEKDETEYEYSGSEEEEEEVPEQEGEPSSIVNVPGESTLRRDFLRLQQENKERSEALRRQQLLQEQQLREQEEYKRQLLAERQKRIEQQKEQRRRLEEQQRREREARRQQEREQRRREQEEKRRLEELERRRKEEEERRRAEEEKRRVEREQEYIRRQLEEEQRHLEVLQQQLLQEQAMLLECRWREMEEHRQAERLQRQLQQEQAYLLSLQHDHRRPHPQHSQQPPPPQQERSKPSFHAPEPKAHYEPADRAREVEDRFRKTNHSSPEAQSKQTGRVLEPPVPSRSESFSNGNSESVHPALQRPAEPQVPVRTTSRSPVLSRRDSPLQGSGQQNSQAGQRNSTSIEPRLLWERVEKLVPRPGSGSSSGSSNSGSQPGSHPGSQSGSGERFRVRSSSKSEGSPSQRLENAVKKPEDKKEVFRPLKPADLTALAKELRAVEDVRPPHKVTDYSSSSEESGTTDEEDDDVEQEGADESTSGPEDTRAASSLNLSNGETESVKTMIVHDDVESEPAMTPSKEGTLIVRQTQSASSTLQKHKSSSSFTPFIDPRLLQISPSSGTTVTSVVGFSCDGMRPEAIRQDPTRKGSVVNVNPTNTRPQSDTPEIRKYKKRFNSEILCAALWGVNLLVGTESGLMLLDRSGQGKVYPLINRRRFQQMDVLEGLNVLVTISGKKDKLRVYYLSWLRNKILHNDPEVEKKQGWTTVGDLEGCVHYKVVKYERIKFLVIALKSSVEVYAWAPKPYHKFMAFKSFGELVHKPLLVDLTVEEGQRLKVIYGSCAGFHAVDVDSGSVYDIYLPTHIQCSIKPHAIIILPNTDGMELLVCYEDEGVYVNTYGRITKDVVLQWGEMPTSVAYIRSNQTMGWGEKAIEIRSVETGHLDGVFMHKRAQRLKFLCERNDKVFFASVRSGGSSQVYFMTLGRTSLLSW
Consider `COc1cc(/C=C2/C(=O)Nc3ccc(Cl)cc32)cc(OC)c1OC`, for which the inhibition result was “inactive”.

Take `O=C1Nc2ccc(Cl)cc2/C1=C\c1ccc2c(c1)OCO2`: the inhibition entry was “inactive”.

Turning to `O=C1Nc2ccc(Cl)cc2/C1=C\c1ccccc1F`, the inhibition result was “inactive”.

For a further assay, the target named is T1, MAP kinase-activated protein kinase 5 (Homo sapiens) (UniProt Q8IW41).
T1 sequence (whole entry): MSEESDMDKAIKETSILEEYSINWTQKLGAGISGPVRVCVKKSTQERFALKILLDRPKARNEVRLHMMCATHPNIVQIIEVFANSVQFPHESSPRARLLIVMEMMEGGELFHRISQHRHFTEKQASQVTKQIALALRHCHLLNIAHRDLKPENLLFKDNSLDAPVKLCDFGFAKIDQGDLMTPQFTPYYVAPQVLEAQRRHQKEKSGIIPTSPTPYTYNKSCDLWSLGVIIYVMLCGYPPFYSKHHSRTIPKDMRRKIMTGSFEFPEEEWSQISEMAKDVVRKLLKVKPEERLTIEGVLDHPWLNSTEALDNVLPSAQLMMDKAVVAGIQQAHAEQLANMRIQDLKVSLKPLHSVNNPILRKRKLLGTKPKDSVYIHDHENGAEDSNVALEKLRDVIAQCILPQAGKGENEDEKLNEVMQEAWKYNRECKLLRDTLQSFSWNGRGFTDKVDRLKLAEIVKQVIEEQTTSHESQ
As to the kind of experiment: Inhibition of PRAK.
For `COc1cc(/C=C2/C(=O)Nc3ccc(Cl)cc32)cc(OC)c1OC`, the inhibition result was “inactive”.

For the molecule `O=C1Nc2ccc(Cl)cc2/C1=C\c1ccc2c(c1)OCO2`, the inhibition result was “inactive”.

With `O=C1Nc2ccc(Cl)cc2/C1=C\c1ccccc1F`, the inhibition result is “inactive”.

System in another assay: not listed separately
Briefly: Inhibition of PKA.
Turning to `COc1cc(/C=C2/C(=O)Nc3ccc(Cl)cc32)cc(OC)c1OC`, the inhibition entry was “inactive”.

On to `O=C1Nc2ccc(Cl)cc2/C1=C\c1ccc2c(c1)OCO2`, for which the inhibition result was “inactive”.

With `O=C1Nc2ccc(Cl)cc2/C1=C\c1ccccc1F`, the inhibition result was “inactive”.

For a further assay, the target named is T2, Serine/threonine-protein kinase 3 (Homo sapiens) (UniProt Q13188).
T2 sequence (whole entry): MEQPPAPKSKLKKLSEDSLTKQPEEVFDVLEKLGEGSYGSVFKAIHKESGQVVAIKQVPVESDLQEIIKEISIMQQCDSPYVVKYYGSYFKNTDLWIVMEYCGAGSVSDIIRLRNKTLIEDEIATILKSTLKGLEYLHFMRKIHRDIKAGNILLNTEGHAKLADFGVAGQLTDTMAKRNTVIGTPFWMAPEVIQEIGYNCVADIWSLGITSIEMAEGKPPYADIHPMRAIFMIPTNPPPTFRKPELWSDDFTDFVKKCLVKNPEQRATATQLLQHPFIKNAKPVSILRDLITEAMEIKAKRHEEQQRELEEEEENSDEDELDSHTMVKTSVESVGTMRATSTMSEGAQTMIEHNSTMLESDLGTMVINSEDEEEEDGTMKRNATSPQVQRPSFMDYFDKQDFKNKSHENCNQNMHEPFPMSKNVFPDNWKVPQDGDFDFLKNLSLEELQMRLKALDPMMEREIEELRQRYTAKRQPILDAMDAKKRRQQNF
Briefly: Inhibition of MST2.
As to `COc1cc(/C=C2/C(=O)Nc3ccc(Cl)cc32)cc(OC)c1OC`, the inhibition result was “inactive”.

Regarding `O=C1Nc2ccc(Cl)cc2/C1=C\c1ccc2c(c1)OCO2`, the inhibition entry was “inactive”.

On to `O=C1Nc2ccc(Cl)cc2/C1=C\c1ccccc1F`, for which the inhibition result was “inactive”.

The target in the next assay is Serine/threonine-protein kinase pim-2 (Homo sapiens) (UniProt Q9P1W9). Briefly: Inhibition of PIM2.
Serine/threonine-protein kinase pim-2 (Homo sapiens), sequence (Q9P1W9 whole entry, looked up): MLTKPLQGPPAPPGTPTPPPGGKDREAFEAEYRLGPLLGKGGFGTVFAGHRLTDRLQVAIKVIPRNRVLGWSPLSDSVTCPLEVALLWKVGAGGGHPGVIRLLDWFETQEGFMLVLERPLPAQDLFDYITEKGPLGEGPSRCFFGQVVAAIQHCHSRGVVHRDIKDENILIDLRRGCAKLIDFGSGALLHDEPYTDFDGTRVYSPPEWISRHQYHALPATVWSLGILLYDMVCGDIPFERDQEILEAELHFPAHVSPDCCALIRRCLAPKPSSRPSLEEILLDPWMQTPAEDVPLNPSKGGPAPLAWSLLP
In the case of `COc1cc(/C=C2/C(=O)Nc3ccc(Cl)cc32)cc(OC)c1OC`, the inhibition result was “inactive”.

Consider `O=C1Nc2ccc(Cl)cc2/C1=C\c1ccc2c(c1)OCO2`, for which the inhibition entry was “inactive”.

For the molecule `O=C1Nc2ccc(Cl)cc2/C1=C\c1ccccc1F`, the inhibition entry is “inactive”.

For the next assay, the target named is T3, Gamma-secretase (Homo sapiens) (UniProt Q96BI3+Q9NZ42+Q8WW43+P49768+Q92542+P49810). Briefly: Inhibition of gamma secretase mediated amyloid beta 38 generation in human H4 cells at 10 uM by LPECL assay; values are per cent of control.
Consider `COc1cc(/C=C2/C(=O)Nc3ccc(Cl)cc32)cc(OC)c1OC`, for which the residual activity (commonly the share of the control activity or signal that is left under treatment) is 54%.

Take `O=C1Nc2ccc(Cl)cc2/C1=C\c1ccc2c(c1)OCO2`: the residual activity turned out to be 86%.

For the molecule `O=C1Nc2ccc(Cl)cc2/C1=C\c1ccccc1F`, the residual activity worked out at 87%.

A further assay deals with Tyrosine-protein kinase Fyn (Homo sapiens) (UniProt P06241). As to the kind of experiment: Inhibition of FYN.
Tyrosine-protein kinase Fyn (Homo sapiens), sequence (P06241 2-537 limits assumed): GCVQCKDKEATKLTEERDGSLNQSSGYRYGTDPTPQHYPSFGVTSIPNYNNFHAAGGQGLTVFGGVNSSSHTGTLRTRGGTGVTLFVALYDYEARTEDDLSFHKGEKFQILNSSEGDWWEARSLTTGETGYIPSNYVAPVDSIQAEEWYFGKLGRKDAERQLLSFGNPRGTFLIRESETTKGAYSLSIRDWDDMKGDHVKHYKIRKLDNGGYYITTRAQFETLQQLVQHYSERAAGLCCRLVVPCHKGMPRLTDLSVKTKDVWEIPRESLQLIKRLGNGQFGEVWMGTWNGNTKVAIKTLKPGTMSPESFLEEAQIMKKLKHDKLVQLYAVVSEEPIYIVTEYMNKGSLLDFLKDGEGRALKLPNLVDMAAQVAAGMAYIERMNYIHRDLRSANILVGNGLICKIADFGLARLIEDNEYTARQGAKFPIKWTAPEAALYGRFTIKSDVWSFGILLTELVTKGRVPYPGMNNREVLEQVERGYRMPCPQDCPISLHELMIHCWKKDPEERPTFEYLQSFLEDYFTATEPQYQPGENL
For `COc1cc(/C=C2/C(=O)Nc3ccc(Cl)cc32)cc(OC)c1OC`, the inhibition result was “inactive”.

As for `O=C1Nc2ccc(Cl)cc2/C1=C\c1ccc2c(c1)OCO2`, the inhibition result is “inactive”.

With `O=C1Nc2ccc(Cl)cc2/C1=C\c1ccccc1F`, the inhibition entry is “inactive”.

The target in a further assay is MAP kinase-activated protein kinase 2 (Homo sapiens) (UniProt P49137). Briefly: Inhibition of MAPKAPK2.
Regarding `COc1cc(/C=C2/C(=O)Nc3ccc(Cl)cc32)cc(OC)c1OC`, the inhibition result is “inactive”.

As for `O=C1Nc2ccc(Cl)cc2/C1=C\c1ccc2c(c1)OCO2`, the inhibition result is “inactive”.

In the case of `O=C1Nc2ccc(Cl)cc2/C1=C\c1ccccc1F`, the inhibition result is “inactive”.

The next assay addresses Ribosomal protein S6 kinase alpha-5 (Homo sapiens) (UniProt O75582). Briefly: Inhibition of MSK1.
Turning to `COc1cc(/C=C2/C(=O)Nc3ccc(Cl)cc32)cc(OC)c1OC`, the inhibition result was “inactive”.

For `O=C1Nc2ccc(Cl)cc2/C1=C\c1ccc2c(c1)OCO2`, the inhibition result is “inactive”.

For the molecule `O=C1Nc2ccc(Cl)cc2/C1=C\c1ccccc1F`, the inhibition entry is “inactive”.

Another assay addresses Rho-associated protein kinase 2 (Homo sapiens) (UniProt O75116). As to the kind of experiment: Inhibition of ROCK2.
Take `COc1cc(/C=C2/C(=O)Nc3ccc(Cl)cc32)cc(OC)c1OC`: the inhibition entry was “inactive”.

Turning to `O=C1Nc2ccc(Cl)cc2/C1=C\c1ccc2c(c1)OCO2`, the inhibition entry was “inactive”.

With `O=C1Nc2ccc(Cl)cc2/C1=C\c1ccccc1F`, the inhibition entry is “inactive”.

For the next assay, the target named is Serine/threonine-protein kinase PAK 2 (Homo sapiens) (UniProt Q13177). Briefly: Inhibition of PAK2.
`COc1cc(/C=C2/C(=O)Nc3ccc(Cl)cc32)cc(OC)c1OC`: the inhibition result was “inactive”.

In the case of `O=C1Nc2ccc(Cl)cc2/C1=C\c1ccc2c(c1)OCO2`, the inhibition entry is “inactive”.

In the case of `O=C1Nc2ccc(Cl)cc2/C1=C\c1ccccc1F`, the inhibition entry is “inactive”.

In another assay the target is Ribosomal protein S6 kinase alpha-1 (Homo sapiens) (UniProt Q15418). As to the kind of experiment: Inhibition of RSK1.
Ribosomal protein S6 kinase alpha-1 (Homo sapiens), sequence (Q15418 whole entry): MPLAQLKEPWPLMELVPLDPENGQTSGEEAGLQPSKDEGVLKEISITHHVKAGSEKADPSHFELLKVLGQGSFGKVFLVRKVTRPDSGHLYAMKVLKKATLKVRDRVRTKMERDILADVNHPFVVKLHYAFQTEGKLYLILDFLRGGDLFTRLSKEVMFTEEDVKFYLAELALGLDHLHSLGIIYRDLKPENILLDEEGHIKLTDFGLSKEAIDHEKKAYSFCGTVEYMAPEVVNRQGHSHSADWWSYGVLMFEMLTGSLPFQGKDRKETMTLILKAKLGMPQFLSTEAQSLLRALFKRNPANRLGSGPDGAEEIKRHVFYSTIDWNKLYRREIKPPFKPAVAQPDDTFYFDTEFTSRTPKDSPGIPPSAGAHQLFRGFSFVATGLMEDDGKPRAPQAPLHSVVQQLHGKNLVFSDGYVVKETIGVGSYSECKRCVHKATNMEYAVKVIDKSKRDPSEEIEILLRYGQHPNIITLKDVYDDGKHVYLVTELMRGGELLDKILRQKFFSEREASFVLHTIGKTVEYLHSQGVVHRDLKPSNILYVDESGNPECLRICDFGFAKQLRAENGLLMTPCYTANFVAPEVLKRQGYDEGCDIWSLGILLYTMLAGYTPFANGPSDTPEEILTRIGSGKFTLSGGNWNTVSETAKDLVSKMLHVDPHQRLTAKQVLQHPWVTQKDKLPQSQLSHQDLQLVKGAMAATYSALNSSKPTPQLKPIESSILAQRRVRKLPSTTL
With `COc1cc(/C=C2/C(=O)Nc3ccc(Cl)cc32)cc(OC)c1OC`, the inhibition entry is “inactive”.

Regarding `O=C1Nc2ccc(Cl)cc2/C1=C\c1ccc2c(c1)OCO2`, the inhibition entry was “inactive”.

In the case of `O=C1Nc2ccc(Cl)cc2/C1=C\c1ccccc1F`, the inhibition entry is “inactive”.

For a further assay, the target named is T4, Serine/threonine-protein kinase Sgk1 (Homo sapiens) (UniProt O00141).
T4 sequence (whole entry): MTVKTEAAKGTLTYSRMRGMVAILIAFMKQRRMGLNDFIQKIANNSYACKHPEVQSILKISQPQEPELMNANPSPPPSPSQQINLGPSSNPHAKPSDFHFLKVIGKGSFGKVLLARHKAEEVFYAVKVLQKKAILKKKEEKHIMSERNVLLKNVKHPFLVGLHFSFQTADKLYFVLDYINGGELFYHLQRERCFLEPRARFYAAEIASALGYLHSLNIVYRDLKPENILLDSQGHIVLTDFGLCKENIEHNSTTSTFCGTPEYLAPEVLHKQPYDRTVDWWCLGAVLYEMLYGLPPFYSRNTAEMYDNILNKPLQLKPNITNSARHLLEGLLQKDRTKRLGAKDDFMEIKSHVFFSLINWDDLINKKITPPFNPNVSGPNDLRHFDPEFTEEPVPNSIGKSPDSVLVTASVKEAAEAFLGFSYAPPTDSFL
Briefly: Inhibition of SGK1.
For `COc1cc(/C=C2/C(=O)Nc3ccc(Cl)cc32)cc(OC)c1OC`, the inhibition result is “inactive”.

As for `O=C1Nc2ccc(Cl)cc2/C1=C\c1ccc2c(c1)OCO2`, the inhibition entry was “inactive”.

`O=C1Nc2ccc(Cl)cc2/C1=C\c1ccccc1F`: the inhibition result is “inactive”.

A further assay deals with Receptor-type tyrosine-protein kinase FLT3 (Homo sapiens) (UniProt P36888). Briefly: Inhibition of FLT3.
Receptor-type tyrosine-protein kinase FLT3 (Homo sapiens), sequence (P36888 whole entry): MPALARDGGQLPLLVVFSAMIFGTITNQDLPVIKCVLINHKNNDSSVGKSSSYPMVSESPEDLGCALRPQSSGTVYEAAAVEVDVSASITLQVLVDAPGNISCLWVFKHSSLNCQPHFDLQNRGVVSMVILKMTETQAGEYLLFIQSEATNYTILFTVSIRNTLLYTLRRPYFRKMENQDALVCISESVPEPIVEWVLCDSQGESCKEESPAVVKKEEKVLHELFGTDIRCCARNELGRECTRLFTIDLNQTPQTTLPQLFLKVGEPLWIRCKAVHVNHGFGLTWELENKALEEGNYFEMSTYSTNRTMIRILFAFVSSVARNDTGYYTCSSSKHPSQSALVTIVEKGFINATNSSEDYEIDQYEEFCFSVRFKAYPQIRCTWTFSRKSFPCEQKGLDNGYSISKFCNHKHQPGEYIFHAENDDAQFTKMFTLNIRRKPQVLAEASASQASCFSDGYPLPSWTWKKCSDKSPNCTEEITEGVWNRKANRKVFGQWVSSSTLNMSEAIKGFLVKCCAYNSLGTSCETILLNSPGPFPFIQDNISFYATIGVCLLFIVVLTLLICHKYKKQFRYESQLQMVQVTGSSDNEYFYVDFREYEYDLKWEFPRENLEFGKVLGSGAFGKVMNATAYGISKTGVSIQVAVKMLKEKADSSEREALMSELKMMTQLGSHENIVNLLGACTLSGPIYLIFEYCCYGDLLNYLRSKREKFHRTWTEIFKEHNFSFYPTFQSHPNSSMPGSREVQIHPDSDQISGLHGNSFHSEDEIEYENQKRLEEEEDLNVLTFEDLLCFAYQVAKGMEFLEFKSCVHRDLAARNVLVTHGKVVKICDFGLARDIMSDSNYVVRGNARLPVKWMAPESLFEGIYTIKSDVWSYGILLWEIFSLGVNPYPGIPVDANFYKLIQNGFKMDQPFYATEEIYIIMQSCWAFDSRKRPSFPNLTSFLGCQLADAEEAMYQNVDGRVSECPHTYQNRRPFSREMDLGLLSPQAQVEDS
For the molecule `COc1cc(/C=C2/C(=O)Nc3ccc(Cl)cc32)cc(OC)c1OC`, the inhibition entry is “inactive”.

Consider `O=C1Nc2ccc(Cl)cc2/C1=C\c1ccc2c(c1)OCO2`, for which the inhibition result was “inactive”.

Regarding `O=C1Nc2ccc(Cl)cc2/C1=C\c1ccccc1F`, the inhibition result is “inactive”.

The target in a further assay is T3, Gamma-secretase (Homo sapiens). Briefly: Inhibition of gamma secretase mediated amyloid beta 40 generation in human H4 cells at 10 uM by LPECL assay; values are per cent of control.
`COc1cc(/C=C2/C(=O)Nc3ccc(Cl)cc32)cc(OC)c1OC` gave a residual activity of 72%.

`O=C1Nc2ccc(Cl)cc2/C1=C\c1ccc2c(c1)OCO2` showed a residual activity of 93%.

The molecule `O=C1Nc2ccc(Cl)cc2/C1=C\c1ccccc1F` yielded a residual activity of 88%.
